Legend:
Assay in all cases: relative viability (nuclei count vs DMSO), 5 days (fraction); higher = more cells survive
[1] = test system: 201T
Summary of the method: (§1)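 Relative viability equals treated-well nuclei counts divided by vehicle-well nuclei counts. Counts came from 4× images of lung cancer cell lines grown in 1536-well plates for 5 days after pin-tool dosing on the day after seeding. Dosing used one drug alone or a fixed anchor-drug dose plus five library-drug doses (not always all listed) in √10 steps, and values are medians of duplicate plates.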

[2] = test system: BEN
Summary of the method: as §1

[3] = test system: COR-L 105
Summary of the method: as §1

[4] = test system: EKVX
Summary of the method: as §1

[5] = test system: EPLC-272H
Summary of the method: as §1

[6] = test system: H3255
Summary of the method: as §1

[7] = test system: HCC-44
Summary of the method: as §1

[8] = test system: HCC-827
Summary of the method: as §1

[9] = test system: HOP-62
Summary of the method: as §1

[10] = test system: LCLC-97TM1
Summary of the method: as §1

[11] = test system: LOU-NH91
Summary of the method: as §1

[12] = test system: LU99A
Summary of the method: as §1

[13] = test system: NCI-H1395
Summary of the method: as §1

[14] = test system: NCI-H1437
Summary of the method: as §1

[15] = test system: NCI-H1666
Summary of the method: as §1

[16] = test system: NCI-H1975
Summary of the method: as §1

[17] = test system: NCI-H2085
Summary of the method: as §1

[18] = test system: NCI-H2087
Summary of the method: as §1

[19] = test system: NCI-H2126
Summary of the method: as §1

[20] = test system: NCI-H358
Summary of the method: as §1

[21] = test system: NCI-H647
Summary of the method: as §1

[22] = test system: PC-3 [JPC-3]
Summary of the method: as §1

[23] = test system: SW 1573
Summary of the method: as §1

How did the relative viability ([1]; first compound 0.04 µM) turn out when C[C@@H]1CN(CC(=O)Nc2ccc3c(c2)Cc2cccc(-c4cc(=O)cc(N5CCOCC5)o4)c2S3)C[C@H](C)O1 + Cc1nc(NC(=O)N2CCC[C@H]2C(N)=O)sc1-c1ccnc(C(C)(C)C(F)(F)F)c1 [Alpelisib] (partner 2 µM) was run?
The relative viability was 1.04.

And the relative viability ([1]; first compound 0.1265 µM)?
The relative viability was 1.02.

What about the relative viability ([1]; first compound 0.4 µM) of the same compound?
The relative viability was 0.943.

And the relative viability ([1]; first compound 4 µM)?
Its relative viability is 0.95.

What about the relative viability ([2]; first compound 0.04 µM) of the same compound?
The relative viability was 1.

What about the relative viability ([2]; first compound 0.1265 µM) of the same compound?
Its relative viability is 0.968.

What about the relative viability ([2]; first compound 0.4 µM) of the same compound?
Its relative viability is 1.03.

What about the relative viability ([2]; first compound 4 µM) of the same compound?
The relative viability was 1.04.

And the relative viability ([3]; first compound 0.04 µM)?
The relative viability was 1.09.

What about the relative viability ([3]; first compound 0.1265 µM) of the same compound?
The relative viability was 0.998.

And the relative viability ([3]; first compound 0.4 µM)?
Its relative viability is 1.04.

And the relative viability ([3]; first compound 4 µM)?
Its relative viability is 0.896.

What about the relative viability ([4]; first compound 0.04 µM) of the same compound?
Its relative viability is 0.737.

And the relative viability ([4]; first compound 0.1265 µM)?
The relative viability was 0.818.

And the relative viability ([4]; first compound 0.4 µM)?
The relative viability was 0.818.

What about the relative viability ([4]; first compound 4 µM) of the same compound?
Its relative viability is 0.732.

What about the relative viability ([5]; first compound 0.04 µM) of the same compound?
Its relative viability is 0.928.

And the relative viability ([5]; first compound 0.1265 µM)?
The relative viability was 0.806.

What about the relative viability ([5]; first compound 0.4 µM) of the same compound?
Its relative viability is 0.857.

And the relative viability ([5]; first compound 4 µM)?
The relative viability was 1.1.

What about the relative viability ([6]; first compound 0.04 µM) of the same compound?
Its relative viability is 0.569.

What about the relative viability ([6]; first compound 0.1265 µM) of the same compound?
The relative viability was 0.659.

What about the relative viability ([6]; first compound 0.4 µM) of the same compound?
Its relative viability is 0.549.

And the relative viability ([6]; first compound 4 µM)?
Its relative viability is 0.611.

What about the relative viability ([7]; first compound 0.04 µM) of the same compound?
Its relative viability is 0.774.

And the relative viability ([7]; first compound 0.1265 µM)?
The relative viability was 0.744.

And the relative viability ([7]; first compound 0.4 µM)?
The relative viability was 0.615.

What about the relative viability ([7]; first compound 4 µM) of the same compound?
Its relative viability is 0.582.

And the relative viability ([8]; first compound 0.04 µM)?
Its relative viability is 1.02.

And the relative viability ([8]; first compound 0.1265 µM)?
Its relative viability is 0.988.

What about the relative viability ([8]; first compound 0.4 µM) of the same compound?
The relative viability was 0.938.

And the relative viability ([8]; first compound 4 µM)?
The relative viability was 0.978.

And the relative viability ([9]; first compound 0.04 µM)?
Its relative viability is 1.08.

And the relative viability ([9]; first compound 0.1265 µM)?
The relative viability was 1.05.

What about the relative viability ([9]; first compound 0.4 µM) of the same compound?
The relative viability was 0.939.

And the relative viability ([9]; first compound 4 µM)?
The relative viability was 1.07.

And the relative viability ([10]; first compound 0.1265 µM)?
The relative viability was 0.225.

And the relative viability ([10]; first compound 0.4 µM)?
Its relative viability is 0.237.

What about the relative viability ([10]; first compound 4 µM) of the same compound?
The relative viability was 0.238.

And the relative viability ([11]; first compound 0.04 µM)?
The relative viability was 0.756.

And the relative viability ([11]; first compound 0.1265 µM)?
Its relative viability is 0.72.

And the relative viability ([11]; first compound 0.4 µM)?
Its relative viability is 0.692.

And the relative viability ([11]; first compound 4 µM)?
Its relative viability is 0.689.

What about the relative viability ([12]; first compound 0.04 µM) of the same compound?
The relative viability was 0.475.

What about the relative viability ([12]; first compound 0.1265 µM) of the same compound?
The relative viability was 0.532.

And the relative viability ([12]; first compound 0.4 µM)?
The relative viability was 0.567.

And the relative viability ([12]; first compound 4 µM)?
Its relative viability is 0.566.

What about the relative viability ([13]; first compound 0.04 µM) of the same compound?
The relative viability was 0.958.

What about the relative viability ([13]; first compound 0.1265 µM) of the same compound?
The relative viability was 1.08.

And the relative viability ([13]; first compound 0.4 µM)?
The relative viability was 1.05.

And the relative viability ([13]; first compound 4 µM)?
The relative viability was 1.08.

What about the relative viability ([14]; first compound 0.04 µM) of the same compound?
Its relative viability is 1.04.

What about the relative viability ([14]; first compound 0.1265 µM) of the same compound?
The relative viability was 1.01.

What about the relative viability ([14]; first compound 0.4 µM) of the same compound?
Its relative viability is 0.813.

And the relative viability ([14]; first compound 4 µM)?
Its relative viability is 0.797.

What about the relative viability ([15]; first compound 0.04 µM) of the same compound?
Its relative viability is 1.17.

What about the relative viability ([15]; first compound 0.1265 µM) of the same compound?
Its relative viability is 1.12.

What about the relative viability ([15]; first compound 0.4 µM) of the same compound?
The relative viability was 0.964.

And the relative viability ([15]; first compound 4 µM)?
Its relative viability is 0.654.

What about the relative viability ([16]; first compound 0.04 µM) of the same compound?
Its relative viability is 0.666.

What about the relative viability ([16]; first compound 0.1265 µM) of the same compound?
Its relative viability is 0.587.

What about the relative viability ([16]; first compound 0.4 µM) of the same compound?
The relative viability was 0.551.

And the relative viability ([16]; first compound 4 µM)?
The relative viability was 0.438.

And the relative viability ([17]; first compound 0.04 µM)?
The relative viability was 0.99.

And the relative viability ([17]; first compound 0.1265 µM)?
The relative viability was 0.897.

What about the relative viability ([17]; first compound 0.4 µM) of the same compound?
The relative viability was 0.793.

And the relative viability ([17]; first compound 4 µM)?
The relative viability was 0.7.

What about the relative viability ([18]; first compound 0.04 µM) of the same compound?
Its relative viability is 1.49.

And the relative viability ([18]; first compound 0.1265 µM)?
Its relative viability is 1.2.

What about the relative viability ([18]; first compound 0.4 µM) of the same compound?
The relative viability was 1.2.

What about the relative viability ([18]; first compound 4 µM) of the same compound?
Its relative viability is 0.837.

What about the relative viability ([19]; first compound 0.04 µM) of the same compound?
Its relative viability is 0.807.

What about the relative viability ([19]; first compound 0.1265 µM) of the same compound?
Its relative viability is 0.765.

And the relative viability ([19]; first compound 0.4 µM)?
Its relative viability is 0.738.

What about the relative viability ([19]; first compound 4 µM) of the same compound?
Its relative viability is 0.762.

What about the relative viability ([20]; first compound 0.04 µM) of the same compound?
Its relative viability is 1.12.

What about the relative viability ([20]; first compound 0.1265 µM) of the same compound?
The relative viability was 0.859.

What about the relative viability ([20]; first compound 0.4 µM) of the same compound?
The relative viability was 0.73.

And the relative viability ([20]; first compound 4 µM)?
The relative viability was 0.491.

And the relative viability ([21]; first compound 0.04 µM)?
Its relative viability is 1.26.

And the relative viability ([21]; first compound 0.1265 µM)?
Its relative viability is 1.08.

And the relative viability ([21]; first compound 0.4 µM)?
The relative viability was 1.08.

And the relative viability ([21]; first compound 4 µM)?
Its relative viability is 0.766.

What about the relative viability ([22]; first compound 0.04 µM) of the same compound?
The relative viability was 1.02.

What about the relative viability ([22]; first compound 0.1265 µM) of the same compound?
The relative viability was 1.

What about the relative viability ([22]; first compound 0.4 µM) of the same compound?
The relative viability was 1.

And the relative viability ([22]; first compound 4 µM)?
Its relative viability is 0.952.

And the relative viability ([23]; first compound 0.04 µM)?
The relative viability was 0.867.

What about the relative viability ([23]; first compound 0.1265 µM) of the same compound?
Its relative viability is 0.852.

What about the relative viability ([23]; first compound 0.4 µM) of the same compound?
Its relative viability is 0.771.

And the relative viability ([23]; first compound 4 µM)?
Its relative viability is 0.753.

— the supplement of paper PMC10307832
